The values below come from article PMC5640562, “Synthesis and anticancer activity of novel quinazolinone-based rhodanines” (Chemistry Central Journal, 2017).

Each structure is given as a SMILES string. Some results are limits rather than exact numbers.

For one data set, the system named is AG01523 fibroblasts. Briefly: MTT cytotoxicity assay, normal skin fibroblast strain AG01523. It counts as cell-based. The note with it: normal human skin fibroblasts, 3 days incubation, mean of three independent experiments (± standard deviation). On the procedure: (§1) The compounds were tested for their cytotoxic activity on a solid tumor cell line, i.e. HT-1080 originating from a fibrosarcoma (American Type Culture Collection; ATCC, Rockville, MD, USA), and on two leukemia cell lines, i.e. the HL-60 human promyelocytic leukemia (European Collection of Animal Cell Cultures; ECACC, Salisbury, UK) and the K-562 human chronic myelogenous leukemia (ATCC). Furthermore, the human skin fibroblast strain AG01523 (Coriell Institute for Medical Research, Camden, NJ, USA) was also used as normal control. Adherent cells were routinely cultured in Dulbecco’s […] (DMEM), and leukemia cells in RPMI 1640, in an environment of 5% CO2, 85% humidity, and 37 °C. All media were supplemented with penicillin (100 U/ml), streptomycin (100 μg/ml) (media and antibiotics from Biochrom KG, Berlin, Germany), and 10% fetal bovine serum (Life Technologies Europe BV, Thessaloniki, Greece). Adherent cells were subcultured using a trypsin (0.25%; Life Technologies Europe BV)—citrate (0.30%; Sigma, St. Louis, MO, USA) solution. The cytotoxicity assay was performed by a modification of the MTT method. Briefly, the cells were plated in flat-bottomed 96-well microplates at a density of 5000 cells/well, and incubated overnight before the addition of serial dilutions of the test compounds. The cells were incubated with the compounds or the corresponding vehicle (DMSO) concentrations for 3 days. Then, the medium was replaced with MTT (Sigma) in serum-free, phenol-red-free DMEM (1 mg/ml). After incubation for 4 h, the MTT formazan was solubilized in 2-propanol, and the optical density was measured using a FLUOstar Optima (BMG Labtech, Ortenberg, Germany) microplate reader at a wavelength of 550 nm (reference wavelength 660 nm). Doxorubicin hydrochloride (Sigma) was included in the experiments as positive control. The results represent the mean of three independent experiments and are expressed as IC50 [42].

In the next data set the test system is HL-60 cells. As to the kind of experiment: MTT cytotoxicity assay, HL-60 promyelocytic leukemia cells. The format is cell-based, human. The note with it: 3 days incubation, mean of three independent experiments (± standard deviation). On the procedure:
as §1
For orientation: Formazan colour is commonly taken as a measure of viable cells.

The test system of a further data set is K-562 cells. Briefly: MTT cytotoxicity assay, K-562 chronic myelogenous leukemia cells. It counts as cell-based, human. The note with it: 3 days incubation, mean of three independent experiments (± standard deviation). How it is done: as §1
The test system of another data set is HT-1080 cells. As to the kind of experiment: MTT cytotoxicity assay, HT-1080 fibrosarcoma cells. It counts as cell-based, human. The note with it: 3 days incubation, mean of three independent experiments (± standard deviation). How it is done:
as §1

Broadly, the IC50 is the concentration needed to halve the response being measured. Low readings indicate greater potency, high ones weaker potency. As for `COc1cc(C=C2SC(=S)NC2=O)ccc1OCc1nc2ccccc2c(=O)n1-c1ccc(C(F)(F)F)cc1` [Compound 47], the IC50 in the data set with AG01523 fibroblasts is more than 100 µM; in the data set on HL-60 cells it was 2.6 µM; in the data set on K-562 cells, 5.1 µM; with HT-1080 cells, 15.8 µM. Moreover, the “IC50 HL-60 cytotoxicity” value in the data set with HL-60 cells is “low micromolar range”. In the data set on K-562 cells, the “IC50 K-562 cytotoxicity” value is on record as “low micromolar range”.
